Reference: patent US10947213B1 (Merck Patent GmbH, priority 2015, dated 2021)

These compounds were tested against T1, TLR7/NFKb HEK cells (Homo sapiens, UniProt Q9NYK1) (assay: HEK Cell Assay (TLR7/NFKb reporter, Steady-Glo luciferase readout)). Conditions: 30 min compound preincubation, then R*48 agonist for 5 hours, read-out: Potency.
T1 construct: expressed in transfected cells; host or cells: HEK cells (TLR7/NFKb reporter line)
T1 sequence (Q9NYK1 27-1049): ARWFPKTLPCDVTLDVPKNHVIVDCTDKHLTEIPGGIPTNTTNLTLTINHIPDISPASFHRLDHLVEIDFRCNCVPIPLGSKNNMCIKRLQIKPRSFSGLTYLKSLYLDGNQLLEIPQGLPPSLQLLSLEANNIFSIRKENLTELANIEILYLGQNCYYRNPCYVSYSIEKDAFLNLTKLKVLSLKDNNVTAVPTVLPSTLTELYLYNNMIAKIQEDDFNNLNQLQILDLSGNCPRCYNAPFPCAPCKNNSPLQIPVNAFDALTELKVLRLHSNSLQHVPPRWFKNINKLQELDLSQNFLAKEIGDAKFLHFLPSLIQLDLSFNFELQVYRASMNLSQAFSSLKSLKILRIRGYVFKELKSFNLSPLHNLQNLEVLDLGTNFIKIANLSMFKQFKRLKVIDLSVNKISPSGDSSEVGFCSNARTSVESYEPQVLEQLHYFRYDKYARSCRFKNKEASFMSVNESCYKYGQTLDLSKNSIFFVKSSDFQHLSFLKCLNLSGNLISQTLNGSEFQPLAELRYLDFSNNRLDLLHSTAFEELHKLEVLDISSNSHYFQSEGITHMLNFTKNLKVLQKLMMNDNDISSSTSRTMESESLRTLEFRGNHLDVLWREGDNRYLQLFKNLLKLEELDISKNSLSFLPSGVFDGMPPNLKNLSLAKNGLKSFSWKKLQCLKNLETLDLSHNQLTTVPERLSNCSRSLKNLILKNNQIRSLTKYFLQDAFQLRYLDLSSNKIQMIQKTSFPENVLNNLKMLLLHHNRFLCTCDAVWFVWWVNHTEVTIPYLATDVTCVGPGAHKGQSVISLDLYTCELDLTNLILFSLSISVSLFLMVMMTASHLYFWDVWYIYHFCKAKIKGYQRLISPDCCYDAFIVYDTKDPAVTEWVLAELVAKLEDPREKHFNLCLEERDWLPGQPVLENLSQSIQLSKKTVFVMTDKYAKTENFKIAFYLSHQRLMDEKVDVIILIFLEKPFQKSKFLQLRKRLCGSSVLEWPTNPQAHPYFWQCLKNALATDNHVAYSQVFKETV
Type: cell-based
Protocol: Example 142: HEK Cell Assay
Into 384 CulturePlates (Corning 3707) was placed 5000 c/w of TLR7/NFKb HEK cells in 30 uL DMEM without Phenil red (gibco #31053) and 10% i.a. FCS and 2 mM L-ZGLutamin. The cells were incubated for 24 h at 37° C., 10% carbon dioxide and 90% relative humidity. 3 uL of controls, standards, and compounds were dispensed into wells, incubated for 30 min then 3 uL of R*48 agonist in 20 mM Hepes was added. After incubation for 5 hours, they were allowed to stand at room temperature for 15 min. To this was added 10 uL of Steady-Glo substrate reagent and shake assay plate for 5 min at 1500 rpm. The assay plate was allowed to sit for 30 min at room temperature and then the plate was read on EnVision.

Row | SMILES | IC50 [nM]
1 | N[C@H]1C[C@@H](C2CC2)CN(c2ccc(C(F)(F)F)c3ncccc23)C1 (relative stereo) [Compound 331, cis-5-cyclopropyl-1-[8-(trifluoromethyl)quinolin-5-yl]piperidin-3-amine] | < 1000
2 | N[C@H]1C[C@@H](C2CC2)CN(c2ccc(C(F)F)c3ncccc23)C1 (relative stereo) [Compound 332, cis-5-cyclopropyl-1-[8-(difluoromethyl)quinolin-5-yl]piperidin-3-amine] | < 1000
3 | N[C@H]1C[C@@H](C2CC2)CN(c2ccc(F)c3ncccc23)C1 (relative stereo) [Compound 333, cis-5-cyclopropyl-1-(8-fluoroquinolin-5-yl)piperidin-3-amine] | < 1000
4 | COc1ccc(N2C[C@@H](N)C[C@@H](C3CC3)C2)c2cccnc12 (relative stereo) [Compound 334, cis-5-cyclopropyl-1-(8-methoxyquinolin-5-yl)piperidin-3-amine] | < 1000
5 | O=C(CN1CCOCC1)N[C@H]1C[C@@H](C2CC2)CN(c2ccc(C(F)(F)F)c3nccnc23)C1 (relative stereo) [Compound 335, cis-N-[5-cyclopropyl-1-[8-(trifluoromethyl)quinoxalin-5-yl]piperidin-3-yl]-2-(morpholin-4-yl)acetamide] | > 10000
6 | O=C(CN1CCOCC1)N[C@H]1C[C@@H](C2CC2)CN(c2ccc(C(F)(F)F)c3ncccc23)C1 (relative stereo) [Compound 336, cis-N-[5-cyclopropyl-1-[8-(trifluoromethyl)quinolin-5-yl]piperidin-3-yl]-2-(morpholin-4-yl)acetamide] | > 10000
7 | CN(C(=O)CN1CCOCC1)[C@H]1C[C@@H](C2CC2)CN(c2ccc(C(F)(F)F)c3ncccc23)C1 (relative stereo) [Compound 337, cis-N-[5-cyclopropyl-1-[8-(trifluoromethyl)quinolin-5-yl]piperidin-3-yl]-N-methyl-2-(morpholin-4-yl)acetamide] | > 10000
8 | N#Cc1ccc(N2C[C@@H](NC(=O)CC(F)(F)F)C[C@@H](C(F)(F)F)C2)c2cccnc12 (relative stereo) [Compound 428, cis-N-[1-(8-Cyano-quinolin-5-yl)-5-trifluoromethyl-piperidin-3-yl]-3,3,3-trifluoro-propionamide] | < 1000
9 | CC(C)(C)CC(=O)N[C@H]1C[C@@H](C(F)(F)F)CN(c2ccc(C#N)c3ncccc23)C1 (relative stereo) [Compound 431, cis-N-[1-(8-Cyano-quinolin-5-yl)-5-trifluoromethyl-piperidin-3-yl]-3,3-dimethyl-butyramide] | < 1000
10 | CN1CCC(CC(=O)N[C@H]2C[C@@H](C(F)(F)F)CN(c3ccc(C#N)c4ncccc34)C2)CC1 (relative stereo) [Compound 478, cis-N-[1-(8-Cyano-quinolin-5-yl)-5-trifluoromethyl-piperidin-3-yl]-2-(1-methyl-piperidin-4-yl)-acetamide] | < 1000
11 | C[C@@H]1C[C@H](CN2CCC(N3CCOCC3)CC2)CN(c2ccc(C(F)(F)F)c3ncccc23)C1 (relative stereo) [Compound 535, cis-5-[3-Methyl-5-(4-morpholin-4-yl-piperidin-1-ylmethyl)-piperidin-1-yl]-8-trifluoromethyl-quinoline] | < 1000
12 | C[C@@H]1C[C@@H](CN2CCC(N3CCOCC3)CC2)CN(c2ccc(C(F)(F)F)c3ncccc23)C1 (relative stereo) [Compound 536, trans-5-[3-Methyl-5-(4-morpholin-4-yl-piperidin-1-ylmethyl)-piperidin-1-yl]-8-trifluoromethyl-quinoline] | 1000 to 10000
13 | C[C@@H]1C[C@H](C(=O)NCCN2CCN(C)CC2)CN(c2ccc(C#N)c3nccnc23)C1 (relative stereo) [Compound 537, cis-1-(8-Cyano-quinoxalin-5-yl)-5-methyl-piperidine-3-carboxylic acid [2-(4-methyl-piperazin-1-yl)-ethyl]-amide] | < 1000
14 | C[C@@H]1C[C@H](C(=O)NCC2CCN(C)CC2)CN(c2ccc(C(F)(F)F)c3ncccc23)C1 (relative stereo) [Compound 547, cis-5-Methyl-1-(8-trifluoromethyl-quinolin-5-yl)-piperidine-3-carboxylic Acid (1-methyl-piperidin-4-ylmethyl)-amide] | < 1000
15 | C[C@@H]1C[C@@H](C(=O)NCC2CCN(C)CC2)CN(c2ccc(C(F)(F)F)c3ncccc23)C1 (relative stereo) [Compound 548, trans-5-Methyl-1(8-trifluoromethyl-quinolin-5-yl)-piperidine-3-carboxylic acid (1-methyl-piperidin-4-ylmethyl)-amide] | < 1000

The next lines start with the values.

Row | IC50 [nM] | SMILES
16 | < 1000 | CN1CCN(CC(=O)N[C@H]2C[C@@H](C(F)(F)F)CN(c3ccc(C#N)c4nccnc34)C2)CC1 (relative stereo) [Compound 229, cis-N-[1-(8-cyanoquinoxalin-5-yl)-5-(trifluoromethyl)piperidin-3-yl]-2-(4-methylpiperazin-1-yl)acetamide]
17 | < 1000 | N[C@H]1C[C@@H](C2CC2)CN(c2ccc(C(F)(F)F)c3nccnc23)C1 (relative stereo) [Compound 330, cis-5-cyclopropyl-1-[8-(trifluoromethyl)quinoxalin-5-yl]piperidin-3-amine]
18 | 1000 to 10000 | N[C@H]1C[C@@H](C2CC2)CN(c2ccc(F)c3nccnc23)C1 (relative stereo) [Compound 366, cis-5-cyclopropyl-1-(8-fluoroquinoxalin-5-yl)piperidin-3-amine]
19 | 1000 to 10000 | N#Cc1ccc(N2C[C@@H](NC(=O)CCC(N)=O)C[C@@H](C(F)(F)F)C2)c2cccnc12 (relative stereo) [Compound 480, cis-N-[1-(8-Cyano-quinolin-5-yl)-5-trifluoromethyl-piperidin-3-yl]-succinamide]
20 | 1000 to 10000 | CNC(=O)[C@@H]1C[C@H](C)CN(c2ccc(C#N)c3nccnc23)C1 (relative stereo) [Compound 541, cis-1-(8-Cyano-quinoxalin-5-yl)-5-methyl-piperidine-3-carboxylic acid methylamide]
21 | 1000 to 10000 | CNC(=O)[C@@H]1C[C@@H](C)CN(c2ccc(C#N)c3nccnc23)C1 (relative stereo) [Compound 542, trans-1-(8-Cyano-quinoxalin-5-yl)-5-methyl-piperidine-3-carboxylic acid methylamide]
22 | 1000 to 10000 | N#Cc1ccc(N2CC(N)CC(C3CC3)C2)c2nccnc12 (single isomer, unassigned) [Compound 69, 8-(3-amino-5-cyclopropylpiperidin-1-yl)quinoxaline-5-carbonitrile]
23 | < 1000 | N#Cc1ccc(N2CC(N)CC(C3CC3)C2)c2nccnc12 (single isomer, unassigned) [Compound 70, 8-(3-amino-5-cyclopropylpiperidin-1-yl)quinoxaline-5-carbonitrile]
24 | < 1000 | N#Cc1ccc(N2CC(N)CC(C(F)(F)F)C2)c2cccnc12 (single isomer, unassigned) [Compound 72]
25 | < 1000 | N#Cc1ccc(N2CC(N)CC(C(F)(F)F)C2)c2cccnc12 (single isomer, unassigned) [Compound 73]
26 | < 1000 | N#Cc1ccc(N2CC(N)CC(F)(F)C2)c2nccnc12 (single isomer, unassigned) [Compound 75]
27 | 1000 to 10000 | N#Cc1ccc(N2CC(N)CC(F)(F)C2)c2nccnc12 (single isomer, unassigned) [Compound 76]
28 | < 1000 | N#Cc1ccc(N2CC(N)CC(C(F)(F)F)C2)c2nccnc12 (single isomer, unassigned) [Compound 82]
29 | < 1000 | N#Cc1ccc(N2CC(N)CC(C(F)(F)F)C2)c2nccnc12 (single isomer, unassigned) [Compound 83]
30 | < 1000 | CC(C)[C@H](O)C(=O)NC1CC(C(F)(F)F)CN(c2ccc(C#N)c3nccnc23)C1 (single isomer, unassigned) [Compound 87]
31 | < 1000 | CC(C)[C@H](O)C(=O)NC1CC(C(F)(F)F)CN(c2ccc(C#N)c3nccnc23)C1 (single isomer, unassigned) [Compound 88]
